The values that follow come from patent US20160229839A1, “Factor XIa Inhibitors” (Merck Sharp & Dohme Corp., priority 2013, published 2016).

For the test, the target named is T1, purified human Factor XIa (Homo sapiens, UniProt P03951).
T1 construct: purified human Factor XIa; purchased Sekisui Diagnostics
T1 sequence (P03951 388-625 limits assumed): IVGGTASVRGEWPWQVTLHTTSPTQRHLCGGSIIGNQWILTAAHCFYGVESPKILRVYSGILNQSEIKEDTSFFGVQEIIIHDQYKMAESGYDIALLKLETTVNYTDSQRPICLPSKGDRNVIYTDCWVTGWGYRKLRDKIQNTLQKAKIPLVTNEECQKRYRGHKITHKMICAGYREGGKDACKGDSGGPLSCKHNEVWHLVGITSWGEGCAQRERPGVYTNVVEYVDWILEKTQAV
T1 sequence (P03951 19-387 partner limits assumed): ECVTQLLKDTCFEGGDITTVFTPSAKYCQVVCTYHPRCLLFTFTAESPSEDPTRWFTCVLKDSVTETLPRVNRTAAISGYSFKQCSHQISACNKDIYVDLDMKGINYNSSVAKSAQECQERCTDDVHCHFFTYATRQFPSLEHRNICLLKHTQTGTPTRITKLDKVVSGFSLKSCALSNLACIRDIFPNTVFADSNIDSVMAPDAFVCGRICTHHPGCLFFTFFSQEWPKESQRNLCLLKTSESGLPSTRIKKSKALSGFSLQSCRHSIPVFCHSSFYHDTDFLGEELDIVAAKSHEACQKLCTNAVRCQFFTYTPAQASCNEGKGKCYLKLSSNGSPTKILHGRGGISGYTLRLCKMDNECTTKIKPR
The test can be described thus: Factor XIa Assay (fluorogenic substrate Z-Gly-Pro-Arg-AFC). The note with it: purified human Factor XIa 40 pM; Z-Gly-Pro-Arg-AFC 100 μM; 50 mM HEPES pH 7.4; read-out: hFXIa Ki (nM), Factor XIa inhibition. In kind it is biochemical.
For the compound `COC(=O)Nc1ccc(-c2nc([C@H]3[C@@H](c4ccccc4)CCCN3C(=O)/C=C/c3cc(Cl)ccc3-n3cnnn3)[nH]c2Cl)cc1` [Example 1-64, methyl (4-(5-chloro-2-((2R,3R)-1-((E)-3-(5-chloro-2-(1H-tetrazol-1-yl)phenyl)acryloyl)-3-phenylpiperidin-2-yl)-1H-imidazol-4-yl)phenyl)carbamate], the Ki was over 10000 nM.
As to `O=C(Nc1ccc2[nH]ncc2c1)[C@@H]1[C@H](c2ccccc2)CCCN1C(=O)/C=C/c1cc(Cl)ccc1-n1cnnn1` [Example 1-65, (2S,3S)-1-((E)-3-(5-chloro-2-(1H-tetrazol-1-yl)phenyl)acryloyl)-N-(1H-indazol-5-yl)-3-phenylpiperidine-2-carboxamide], the Ki came to 31.4 nM.
For `COC(=O)Nc1ccc(-c2c[nH]c([C@@H]3[C@H](CO[Si](C)(C)C(C)(C)C)CCCN3C(=O)/C=C/c3cc(Cl)ccc3-n3cnnn3)n2)cc1` [Example 1-66, methyl (4-(2-((2S,3R)-3-(((tert-butyldimethylsilyl)oxy)methyl)-1-((E)-3-(5-chloro-2-(1H-tetrazol-1-yl)phenyl)acryloyl)piperidin-2-yl)-1H-imidazol-4-yl)phenyl)carbamate] the value was 3910 nM; for `COC(=O)Nc1ccc(-c2c[nH]c([C@@H]3[C@H](CO)CCCN3C(=O)/C=C/c3cc(Cl)ccc3-n3cnnn3)n2)cc1` [Example 1-67, methyl (4-(2-((2S,3R)-1-((E)-3-(5-chloro-2-(1H-tetrazol-1-yl)phenyl)acryloyl)-3-(hydroxymethyl)piperidin-2-yl)-1H-imidazol-4-yl)phenyl)carbamate], 2640 nM; for `O=C(/C=C/c1cc(Cl)ccc1-n1cnnn1)N1CCC[C@@H](c2ccccc2)[C@H]1c1nc2cc(F)ccc2[nH]1` [Example 1-68, (E)-3-(5-chloro-2-(1H-tetrazol-1-yl)phenyl)-1-((2S,3S)-2-(5-fluoro-1H-benzo[d]imidazol-2-yl)-3-phenylpiperidin-1-yl)prop-2-en-1-one], 428 nM.
As for `O=C(O)c1ccc(NC(=O)C2CCC(c3ccccc3)CN2C(=O)/C=C/c2cc(Cl)ccc2-n2cnnn2)cc1` (stereo not shown) [Example 1-71, (E)-4-(1-(3-(5-chloro-2-(1H-tetrazol-1-yl)phenyl)acryloyl)-5-phenylpiperidine-2-carboxamido)benzoic acid], the Ki came to 2610 nM.
Take `O=C(NC12CCC(C(=O)O)(CC1)CC2)[C@@H]1[C@H](c2ccccc2)CCCN1C(=O)/C=C/c1cc(Cl)ccc1-n1cnnn1` [Example 1-72, 4-((2S,3S)-1-((E)-3-(5-chloro-2-(1H-tetrazol-1-yl)phenyl)acryloyl)-3-phenylpiperidine-2-carboxamido)bicyclo[2.2.2]octane-1-carboxylic acid]: the Ki turned out to be 63.6 nM.
